Results from patent publication US12246010B2, “Formulations of tegavivint and related compounds” (Iterion Therapeutics, Inc., priority 2018, dated 2025).
Several values for one entry are separate records, joined by “and”; a condition that tells them apart may be missing. Equal values may be shown once.

Experiments:
[1] = Dose-escalating intravenous infusion study in male Beagle dogs (plasma PK); type: in vivo; conditions: dog
Method: • Study Animals: Four male non-naïve Beagle dogs were released by Xenometrics for study use on Apr. 20, 2017. The animals were fed Harlan Teklad® Global 25% Protein Certified Dog Diet 2025C ad libitum throughout the study (except for brief periods during in-life procedures when it was • Dosing: Animals were dosed via intravenous (IV) infusion (via jugular vein) for 4 hours (h) [±5 minutes (min)].
[…] All blood samples were collected within 10 minutes of the target time and processed per protocol. Bioanalytical results indicated tegavivint was present in all plasma samples.
The pharmacokinetic parameters were determined for BC-2059 following the final 15 mg/kg infusion of the drug over 4 h.

[2] = test system: bleomycin-induced idiopathic pulmonary fibrosis (IPF); assay: Bleomycin-induced IPF mouse model: total lung collagen content (Hydroxyproline Assay); type: in vivo, C57BL/6 male mice
Method: The purpose of this experiment was to investigate tegavivint nanosuspension in a mouse model of bleomycin-induced idiopathic pulmonary fibrosis (IPF). Test articles were as follows:
Murine model of pulmonary fibrosis was induced by intratracheally (IT) injected bleomycin (APP Pharmaceuticals, Schaumburg, IL). One dose of 0.025 U bleomycin dissolved in 50 microliters of Saline 0.9%, or PBS as control was administered to each animal on day 0.
Tegavivint nanosuspension was applied to Group 3 in the form of aerosols, through the method of whole body exposure. The mice were placed inside a plastic box. This box was sealed and connected by one of its sides to the outlet of the nebulizer device, and on the other side to a system of closed water. The whole procedure was carried out inside the fume hood of the animal room. In each treatment session, 5 ml of 25 mg/ml Tegavivint (125 mg) was nebulized over 15 min to each group of 4-5 mice in the chamber. […]
On Day 21 all animals were sacrificed and lungs were harvested. Total lung collagen content was evaluated using the Hydroxyproline Assay as previously described (Morales-Nebreda L, et al. AJRCMB 2015). […] The resulting pellet was resuspended in 1 ml of 0.5 M NaOH and Sirius red staining was quantified spectrophotometrically (540 nm) using a colorimetric plate reader (Bio-Rad, Hercules, CA).

[3] = Aerosol concentration of nebulized formulations in rodent nose-only exposure chamber; type: physicochemical
Excerpt: A series of BC-2059 (tegavivint) formulations were aerosolized using vibrating mesh and compressed air nebulizers to determine the most efficient method of aerosol generation. The aerosols were characterized for aerosol concentration and particle size distribution in a rodent nose-only exposure chamber. Each formulation had different variables adjusted to assess impact on aerosol performance. These included particle size reduction of the API, excipient profile and nebulizer utilized.
Test article BC-2059 was suspended in 0.1% Tween 80 in purified water at a concentration of 15 mg/mL. The suspension was sonicated using a Covaris S220x Ultrasonicator (Covaris, Boston MA) and then mixed on a vortex for one minute. Sonication and mixing by vortex was repeated a total of 15 times.
The remaining bulk BC-2059 powder was ground in a Planetary Ball Mill (Retsch, Germany) for 10 minutes at 150 RPMs utilizing a 12 mL ball mill jar and three metal balls. The milled BC-2059 powder was suspended in 0.1% Tween 80 in purified water at a concentration of 15 mg/mL. The suspension was sonicated using the procedure outlined above.
The remaining bulk BC-2059 powder was ground in a Planetary Ball Mill (Retsch, Germany) for 60 minutes at 300 RPMs utilizing a 12 mL ball mill jar and three metal balls. The milled BC-2059 powder was suspended in 0.1% Tween 80 in purified water and 10% PEG 400 in purified water at a concentration of 15 mg/mL. The suspensions were sonicated using the procedure outlined above. An additional 15 mg/mL BC-2059 suspension using 10% ethanol in purified water was prepared. The suspension was sonicated for 10 minutes using a VWR sonicator (VWR, Radnor PA) and mixed for 4 minutes using a vortex mixer. […]
The aerosols were generated from formulations prepared with a series of surfactants with 4 separate nebulizers (Aeroneb Solo (Aerogen, Ireland), Pari LC Plus (Pari Respiratory Equipment Inc. Midlothian VA), Hospitak Up Mist, Hospitak Inc. Farmdale, NY), and Hudson Micro-Mist (Teleflex Inc. Research Triangle Park, NC) and transitioned into a 2 tier flow-past rodent exposure system.
The total concentration of aerosol in the exposure atmosphere was determined by the analysis of filter samples (GF/A 47-mm filters). Filter samples were collected at a nominal flow rate of 0.3 L/min. Filter samples collected throughout the study were analyzed gravimetrically to determine the total aerosol concentration, and submitted for HPLC analysis.
Filters with test article were extracted in 1:1 acetonitrile: methanol and analyzed by the HPLC-UV assay.

[4] = 15 mg/kg 4 h IV infusion, individual animals, 15 mg/kg
[5] = Covaris and Ball Mill (60 min), 0.1% Tween 80, 15.06 mg/mL, Hospitak
[6] = Covaris and Ball Mill (60 min), 0.1% Tween 80, 15.08 mg/mL, Hudson MicroMist
[7] = Covaris and Ball Mill (60 min), 10% PEG-400, 15.08 mg/mL, Hudson MicroMist
[8] = Covaris, 0.1% Tween 80, 15.04 mg/mL, Aeroneb Solo
[9] = Sonicator and Ball Mill (60 min), 10% Ethanol, 15.00 mg/mL, Hudson MicroMist

Plasma BC-2059, 4 h [1, 4]: 1310 ng/mL and 1320 ng/mL and 1150 ng/mL | Plasma BC-2059, 12 h [1, 4]: 916.0 ng/mL and 1050 ng/mL and 777 ng/mL | Plasma BC-2059, 24 h [1, 4]: 1120 ng/mL (2×) and 1070 ng/mL | Plasma BC-2059, 36 h [1, 4]: 834 ng/mL and 931 ng/mL and 708 ng/mL | Plasma BC-2059, 48 h [1, 4]: 663 ng/mL and 656 ng/mL and 647 ng/mL | Plasma BC-2059, 72 h [1, 4]: 511 ng/mL and 480 ng/mL and 524 ng/mL | Plasma BC-2059, 96 h [1, 4]: 360 ng/mL and 310 ng/mL and 364 ng/mL | Plasma BC-2059, 120 h [1, 4]: 321 ng/mL and 262 ng/mL and 281 ng/mL | concentration at 4 h ([1]; male, Beagle, plasma, iv, 15 mg/kg, 15 mg/kg 4 h IV infusion, individual animals, read-out: Plasma BC-2059, 4 h): 1600 ng/mL | concentration at 12 h ([1]; male, Beagle, plasma, iv, 15 mg/kg, 15 mg/kg 4 h IV infusion, individual animals, read-out: Plasma BC-2059, 12 h): 784 ng/mL | concentration at 24 h ([1]; male, Beagle, plasma, iv, 15 mg/kg, 15 mg/kg 4 h IV infusion, individual animals, read-out: Plasma BC-2059, 24 h): 723 ng/mL | concentration at 36 h ([1]; male, Beagle, plasma, iv, 15 mg/kg, 15 mg/kg 4 h IV infusion, individual animals, read-out: Plasma BC-2059, 36 h): 674 ng/mL | concentration at 48 h ([1]; male, Beagle, plasma, iv, 15 mg/kg, 15 mg/kg 4 h IV infusion, individual animals, read-out: Plasma BC-2059, 48 h): 664 ng/mL | concentration at 72 h ([1]; male, Beagle, plasma, iv, 15 mg/kg, 15 mg/kg 4 h IV infusion, individual animals, read-out: Plasma BC-2059, 72 h): 393 ng/mL | concentration at 96 h ([1]; male, Beagle, plasma, iv, 15 mg/kg, 15 mg/kg 4 h IV infusion, individual animals, read-out: Plasma BC-2059, 96 h): 277 ng/mL | concentration at 120 h ([1]; male, Beagle, plasma, iv, 15 mg/kg, 15 mg/kg 4 h IV infusion, individual animals, read-out: Plasma BC-2059, 120 h): 228 ng/mL | Cmax ([1]; male, Beagle, plasma, 15 mg/kg IV over 4 h, mean, n = 4 males): 1340 ± 187 ng/mL | AUC(0-t) ([1]; male, Beagle, plasma, 15 mg/kg IV over 4 h, mean, n = 4 males, read-out: AUC0-120 h): 73500 ng·h/mL | half-life ([1]; male, Beagle, plasma, 15 mg/kg IV over 4 h, mean, n = 4 males, read-out: T½ (converted)): 53 h | Total Aerosol Conc. ([3]; Covaris and Ball Mill (10 min), 0.1% Tween 80, 15.58 mg/mL, Pari LC Plus): 0.123 mg/L | BC-2059 Aerosol Conc. [3, 5]: 66 µg/L | Total Aerosol Conc. [3, 5]: 0.229 mg/L | BC-2059 Aerosol Conc. [3, 6]: 86 µg/L | Total Aerosol Conc. [3, 6]: 0.093 mg/L | BC-2059 Aerosol Conc. [3, 7]: 7.2 µg/L | Total Aerosol Conc. [3, 7]: 2.58 mg/L | BC-2059 Aerosol Conc. [3, 8]: 1.3 µg/L | Total Aerosol Conc. [3, 8]: 0.247 mg/L | BC-2059 Aerosol Conc. [3, 9]: 20.2 µg/L | Total Aerosol Conc. [3, 9]: 0.027 mg/L
SMILES: C[C@@H]1C[C@H](C)CN(S(=O)(=O)c2ccc3c(c2)C(=NO)c2cc(S(=O)(=O)N4C[C@H](C)C[C@H](C)C4)ccc2C3=NO)C1 [BC2059, tegavivint]
Plasma BC-2059, Predose ([1]; prior to Dose 6 (15 mg/kg 4 h IV infusion), individual animals, 15 mg/kg): 257 ng/mL and 404 ng/mL and 309 ng/mL and 284 ng/mL | effect on total lung collagen content after bleomycin injury ([2]; Group 3, inhaled): reversed this change | Hydroxyproline ([2]; Group 3: IT bleomycin Day 0, 5 ml of 25 mg/ml tegavivint aerosol BID Day 5-21, Day 21, individual animals): 70.016 μg/half lung and 39.44 μg/half lung and 45.68 μg/half lung and 58.784 μg/half lung and 64.296 μg/half lung
